Measured values taken from patent publication US8846671B2, “Heterocyclic alkynyl benzene compounds and medical compositions and uses thereof” (Guangzhou Institute of Biomedicine and Health, Chinese …, priority 2010, dated 2014).
Where a name gives a salt, the structure may show the parent alone. Read-outs that look alike come from different tables or passages of the source.

How the values were obtained:
[1] = system: K562 cells (human CML cell line expressing native Bcr-Abl); assay: Xenograft model of K562 in nude mice, oral dosing; details: for anti-tumor effect compared with imatinib / effect on body weight: po, qd
Procedure: Tumor volume and body weight were monitored once every 2 days (In each group, the tumor volume and body weight at beginning of the day were recorded). Tumor volume was calculated as […]*a*b*b.L×W2/2 (a and b are the length and width of the tumor, respectively). […] The results were shown in Drawings as FIGS. 1, 2, 3, 4, 5, 6, 7 and 8.

[2] = Pharmacokinetics and bioavailability in rats; assay type: in vivo; details: SD rats; for BA(% Oral bioavailability) / bioavailability: calculated according to AUC data, PO vs IV; for pharmacokinetics parameters, overall judgement: corresponding pharmaceutical acceptable salt forms; for bioavailability: read-out: BA(% Oral bioavailability)
In short: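 Rats dosed, heparinized blood sampled at set times, plasma stored at -20 °C, acetonitrile-precipitated and analyzed by HPLC-MS. Compartmental and non-compartmental parameters derived; bioavailability from AUC.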

[3] = system: K562 (human chronic myelogenous leukemia cell line); assay: tumor cell proliferation, MTT or CCK8 assay, 72 h incubation; assay type: cell-based; details: K562, 72 h, read-out: IC50 on tumor cell proliferation, K562
In short: (§1)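 Leukemia cell lines were exposed to compounds at 1×10^−10˜1×10^−5M for 72 h. Proliferation was read by MTT (570 nm) or CCK8 (450/650 nm) after a further 4 h incubation. IC50 values were calculated from inhibition of proliferation.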

[4] = system: L78 (Lung cancer cell line); assay: as above; assay type: cell-based; details: Homo sapiens, read-out: IC50 on tumor cell proliferation, L78
[5] = system: MEG-01 (Human megakaryoblastic leukaemia cell line); assay: as above; assay type: cell-based; details: MEG-01, 72 h, read-out: IC50 on tumor cell proliferation, MEG-01
In short: as §1

[6] = system: U937 Cell line; assay: as above; assay type: cell-based; details: Homo sapiens, read-out: IC50 on tumor cell proliferation, U937
In short: as §1

[7] = system: MOLT-4 (Human acute lymphoblastic leukemia cell line); assay: as above; assay type: cell-based; details: MOLT-4, 72 h, read-out: IC50 on tumor cell proliferation, MOLT-4
In short: as §1

[8] = target: BAF3-T315I cells (Ba/F3 cell line stably expressing BCR/ABL T315I) (Homo sapiens, UniProt P00519, T315I, cells depend on it); assay: as above; assay type: cell-based, mice
[9] = system: K562R cells (imatinib-resistant cell line); assay: as above; assay type: cell-based; details: Homo sapiens, K-562R, read-out: IC50 on tumor cell proliferation, K562R cells
[10] = system: Ba/F3-Bcr/ABL-T315I cells; assay: Xenograft model of BAF3-T315I in SCID nude mice, oral dosing
Procedure: When the mean tumor volume reached 300-500 mm^3, mice were grouped and administered orally. […] Tumor volume and body weight were monitored once every 2 days (In each group, the tumor volume and body weight at beginning of the day were recorded). Tumor volume was calculated as π/6*a*b*b.L×W2/2 (a and b are the length and width of the tumor, respectively). […] The results were shown in Drawings as FIG. 9, 10, 11, 12, 13, 14, 15, 16.

[11] = both sexes, Sprague-Dawley, rat, plasma, iv, 10 mg/kg, IV 10 mg/kg
[12] = both sexes, Sprague-Dawley, rat, plasma, iv, 10 mg/kg, IV 10 mg/kg, read-out: Cmax
[13] = both sexes, Sprague-Dawley, rat, plasma, iv, 10 mg/kg, IV 10 mg/kg, read-out: Tmax
[14] = both sexes, Sprague-Dawley, rat, plasma, po, 25 mg/kg, PO 25 mg/kg
[15] = both sexes, Sprague-Dawley, rat, plasma, po, 25 mg/kg, PO 25 mg/kg, read-out: Cmax
[16] = both sexes, Sprague-Dawley, rat, plasma, po, 25 mg/kg, PO 25 mg/kg, read-out: Tmax
[17] = read-out: IC50 on tumor cell proliferation, BAF3-T315I cells; Ba/F3 expressing BCR/ABL T315I, 72 h, Table 1
[18] = both sexes, Sprague-Dawley, rat, plasma, po
[19] = both sexes, Sprague-Dawley, rat, plasma, iv, 5 mg/kg, IV 5 mg/kg
[20] = both sexes, Sprague-Dawley, rat, plasma, iv, 5 mg/kg, IV 5 mg/kg, read-out: Cmax
[21] = both sexes, Sprague-Dawley, rat, plasma, iv, 5 mg/kg, IV 5 mg/kg, read-out: Tmax
[22] = Ba/F3-Bcr/ABL-T315I xenograft, 25 mg/kg po, q2d or qd
[23] = 20 mg/kg po, q2d or qd (Example 51)

| AUC(0-inf) [2, 14] [ng·h/mL] | half-life [2, 14] [h] | Cmax [2, 15] [ng/mL] | Tmax [2, 16] [h] | IC50 [3] [nM] | IC50 [4] [nM] | IC50 [5] [nM] | IC50 ([6]; U-937, 72 h) [nM] | IC50 [7] [nM] | pharmacokinetics parameters, overall judgement [2] | GI50 [8, 17] [nM] | IC50 [9] [nM] | bioavailability [2, 18] [%] | Compound | effect on tumor growth ([1]; 25 mg/kg po qd) | effect on body weight [1] | other results |
| --- | --- | --- | --- | --- | --- | --- | --- | --- | --- | --- | --- | --- | --- | --- | --- | --- |
| – | – | – | – | 3.48 | > 10000 | 22600 | 8990 | 12700 | adequate pharmacokinetics parameters | 1030 | 840 | – | Cc1cn(-c2cc(NC(=O)c3ccc(C)c(C#Cc4cnc(NC(C)C)nc4)c3)cc(C(F)(F)F)c2)cn1 [D752, 3-(2-(2-(isopropylamino)pyrimidin-5-yl)ethynyl)-4-methyl-N-(3-(4-methyl-1H-imidazol-1-yl)-5-(trifluoromethyl)phenyl)benzamide] | – | – | – |
| – | – | – | – | 7.59 | 11800 | > 10000 | > 10000 | > 10000 | adequate pharmacokinetics parameters | 61 | 220 | – | CCNc1ncc(C#Cc2cc(C(=O)Nc3cc(-n4cnc(C)c4)cc(C(F)(F)F)c3)ccc2C)cn1 [D755, 3-(2-(2-(ethylamino)pyrimidin-5-yl)ethynyl)-4-methyl-N-(3-(4-methyl-1H-imidazol-1-yl)-5-(trifluoromethyl)phenyl)benzamide] | – | – | – |
| – | – | – | – | – | – | – | – | – | – | – | – | – | Cc1cn(-c2cc(NC(=O)c3ccc(C)c(C#Cc4cnc5[nH]ncc5c4)c3)cc(C(F)(F)F)c2)cn1 [D767 mesylate salt, 3-(2-(1H-pyrazolo[3,4-b]pyridin-5-yl)ethynyl)-4-methyl-N-(3-(4-methyl-1H-imidazol-1-yl)-5-(trifluoromethyl)phenyl)benzamide] | completely inhibit the tumor growth | did not cause the body weight loss | Tmax ([2]; IV 5 mg/kg): 0.033 h; AUC(0-∞) ([2]; IV 5 mg/kg, 5 mg/kg): 59222.45 ng·h/mL; Cmax ([2]; IV 5 mg/kg, 5 mg/kg): 14093.75 ng/mL; T1/2 ([2]; IV 5 mg/kg, 5 mg/kg): 4.471 h; AUC(0-∞) ([2]; PO 25 mg/kg, 25 mg/kg): 27850.615 ng·h/mL; Cmax ([2]; PO 25 mg/kg, 25 mg/kg): 2322.5 ng/mL; T1/2 ([2]; PO 25 mg/kg, 25 mg/kg): 5.949 h; Tmax ([2]; PO 25 mg/kg, 25 mg/kg): 2.75 h; BA(% Oral bioavailability) [2]: 9.4% |
| – | – | – | – | – | – | – | – | – | adequate pharmacokinetics parameters | – | – | – | Cc1cn(-c2cc(NC(=O)c3ccc(C)c(C#Cc4cnc5[nH]ncc5c4)c3)cc(C(F)(F)F)c2)cn1 [D767, 3-(2-(1H-pyrazolo[3,4-b]pyridin-5-yl)ethynyl)-4-methyl-N-(3-(4-methyl-1H-imidazol-1-yl)-5-(trifluoromethyl)phenyl)benzamide] | – | – | IC50 ([3]; MTT or CCK8, nM): 0.208 nM; IC50 ([4]; MTT or CCK8, nM): 11.8 nM; IC50 ([5]; MTT or CCK8, nM): > 100 nM; IC50 ([6]; U-937, 72 h, MTT or CCK8, nM): > 100 nM; IC50 ([7]; MTT or CCK8, nM): > 100 nM; GI50 ([8]; Ba/F3 expressing BCR/ABL T315I, 72 h, Table 1; read-out: IC50 on tumor cell proliferation, BAF3-T315I cells): 4.24 nM; IC50 ([9]; imatinib-resistant K562R): 89 nM |
| 10700 | 8.04 | 814 | 3 | – | – | – | – | – | – | – | – | 31.2 | Cc1cn(-c2cc(NC(=O)c3ccc(C)c(C#Cc4cnc5ccnn5c4)c3)cc(C(F)(F)F)c2)cn1 [D822 mesylate salt, 4-methyl-N-(3-(4-methyl-1H-imidazol-1-yl)-5-(trifluoromethyl)phenyl)-3-(2-(pyrazolo[1,5-a]pyrimidin-6-yl)ethynyl)benzamide] | completely inhibit the tumor growth | did not cause the body weight loss | anti-tumor effect compared with imatinib [1]: better anti-tumor effect than imatinib; AUC(0-inf) [2, 11]: 13800 ng·h/mL; half-life [2, 11]: 3.15 h; Cmax [2, 12]: 23100 ng/mL; Tmax [2, 13]: 0.033 h |
| 12600 | 8.72 | 775 | – | – | – | – | – | – | – | – | – | 58.7 | Cc1ccc(C(=O)Nc2ccc(CN3CCN(C)CC3)c(C(F)(F)F)c2)cc1C#Cc1cnc2[nH]ncc2c1 [D824 dimesylate salt, 3-(2-(1H-pyrazolo[3,4-b]pyridin-5-yl)ethynyl)-4-methyl-N-(4-((4-methylpiperazin-1-yl)methyl)-3-(trifluoromethyl)phenyl)benzamide dimesylate] | – | did not cause the body weight loss | effect on tumor growth ([1]; 5 mg/kg po qd): completely inhibit the tumor growth; Tmax ([2]; PO 25 mg/kg, dimesylate, 25 mg/kg): 4.25 h; AUC(0-inf) [2, 19]: 4300 ng·h/mL; half-life [2, 19]: 6.1 h; Cmax [2, 20]: 2240 ng/mL; Tmax [2, 21]: 0.033 h; effect on body weight [10, 22]: help the body weight gain; effect on tumor growth [10, 22]: almost completely suppressed the tumor growth |
| 31800 | 22.2 | 900 | 6.5 | – | – | – | – | – | – | – | – | 78 | Cc1ccc(C(=O)Nc2ccc(CN3CCN(C)CC3)c(C(F)(F)F)c2)cc1C#Cc1cnc2ccnn2c1 [D856 dimesylate salt, 4-methyl-N-(4-((4-methylpiperazin-1-ylmethyl)-3-(trifluoromethyl)phenyl)-3-(2-(pyrazolo[1,5-a]pyrimidin-6-yl)ethynyl)benzamide dimesylate] | – | – | AUC(0-inf) [2, 19]: 8170 ng·h/mL; half-life [2, 19]: 20 h; Cmax [2, 20]: 934 ng/mL; Tmax [2, 21]: 0.033 h; effect on tumor growth [10, 23]: inhibit the tumor growth |
| – | – | – | – | – | – | – | – | – | – | – | – | – | Cc1cn(-c2cc(NC(=O)c3ccc(C)c(C#Cc4cnc5[nH]ncc5c4)c3)cc(C(C)(C)C)c2)cn1 [D968 mesylate, 3-(2-(1H-pyrazolo[3,4-b]pyridin-5-yl)ethynyl)-N-(3-tert-butyl-5-(4-methyl-1H-imidazol-1-yl)phenyl)-4-methylbenzamide mesylate] | – | – | effect on tumor growth [10, 23]: inhibit the tumor growth |

| Compound | AUC(0-inf) [2, 14] [ng·h/mL] | half-life [2, 14] [h] | Cmax [2, 15] [ng/mL] | Tmax [2, 16] [h] | IC50 [3] [nM] | IC50 [4] [nM] | IC50 [5] [nM] | IC50 ([6]; U-937, 72 h) [nM] | IC50 [7] [nM] | pharmacokinetics parameters, overall judgement [2] | GI50 [8, 17] [nM] | IC50 [9] [nM] | bioavailability [2, 18] [%] | effect on tumor growth ([1]; 25 mg/kg po qd) | effect on body weight [1] | other results |
| --- | --- | --- | --- | --- | --- | --- | --- | --- | --- | --- | --- | --- | --- | --- | --- | --- |
| Cc1cn(-c2cc(NC(=O)c3ccc(C)c(C#Cc4cnc(NC5CC5)nc4)c3)cc(C(F)(F)F)c2)cn1 [D747 hydrochloride salt, 3-(2-(2-(cyclopropylamino)pyrimidin-5-yl)ethynyl)-4-methyl-N-(3-(4-methyl-1H-imidazol-1-yl)-5-(trifluoromethyl)phenyl)benzamide] | 252000 | 48.7 | 6200 | 4.5 | – | – | – | – | – | – | – | – | – | completely inhibit the tumor growth | did not cause the body weight loss | anti-tumor effect compared with imatinib [1]: better anti-tumor effect than imatinib; BA(% Oral bioavailability) [2]: 35.3%; AUC(0-inf) [2, 11]: 285000 ng·h/mL; half-life [2, 11]: 71.8 h; Cmax [2, 12]: 49800 ng/mL; Tmax [2, 13]: 0.033 h |
| Cc1cn(-c2cc(NC(=O)c3ccc(C)c(C#Cc4cnc(NC5CC5)nc4)c3)cc(C(F)(F)F)c2)cn1 [D747, 3-(2-(2-(cyclopropylamino)pyrimidin-5-yl)ethynyl)-4-methyl-N-(3-(4-methyl-1H-imidazol-1-yl)-5-(trifluoromethyl)phenyl)benzamide] | – | – | – | – | 2.6 | 10600 | 7540 | 11500 | > 10000 | adequate pharmacokinetics parameters | 99.7 | 96 | – | – | – | – |
